Drawing on US20250320214A1, “ORGANIC COMPOUNDS” (INTRA-CELLULAR THERAPIES, INC., priority 2022, published 2025), this text covers inhibition for 1 compound.

As a reminder, the inhibition is the change of the read-out against control, counted positive when it falls.

Experiment [1] addresses SERT (Homo sapiens, UniProt P31645). As to the kind of experiment: Receptor binding, SERT. Particulars: at 200 nM; read-out: SERT maximum inhibition.
Experiment [2] concerns the target 5-HT2A (Homo sapiens, UniProt P28223). Briefly: Receptor binding, 5-HT2A. As to conditions: at 100 nM; read-out: 5-HT2A maximum inhibition.
In experiment [3] the target is D2 (Homo sapiens, UniProt P14416). Briefly: Receptor binding, D2. Particulars: at 100 nM; read-out: D2 maximum inhibition.
D2, sequence (P14416 1-414 isoform P14416-2): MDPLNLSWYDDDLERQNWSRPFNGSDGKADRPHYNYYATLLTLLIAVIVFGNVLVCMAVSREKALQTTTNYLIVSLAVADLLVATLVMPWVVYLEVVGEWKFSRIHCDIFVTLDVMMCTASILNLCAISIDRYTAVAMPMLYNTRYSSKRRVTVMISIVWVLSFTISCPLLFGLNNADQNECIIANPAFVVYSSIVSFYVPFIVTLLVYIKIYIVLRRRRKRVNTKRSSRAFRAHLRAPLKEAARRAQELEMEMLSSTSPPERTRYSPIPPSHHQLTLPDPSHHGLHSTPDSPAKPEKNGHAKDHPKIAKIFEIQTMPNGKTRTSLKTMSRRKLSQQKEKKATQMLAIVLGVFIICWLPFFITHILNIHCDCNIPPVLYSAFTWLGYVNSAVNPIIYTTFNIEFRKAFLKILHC
Experiment [4] has as its target D1 (Homo sapiens, UniProt P21728). As to the kind of experiment: Receptor binding, D1. As to conditions: at 100 nM; read-out: D1 maximum inhibition.
Experiment [5] deals with Mu opioid receptor (Homo sapiens, UniProt P35372). As to the kind of experiment: Receptor binding, Mu opioid receptor. Particulars: at 100 nM; read-out: Mu maximum inhibition.
Mu opioid receptor, sequence (P35372 whole entry): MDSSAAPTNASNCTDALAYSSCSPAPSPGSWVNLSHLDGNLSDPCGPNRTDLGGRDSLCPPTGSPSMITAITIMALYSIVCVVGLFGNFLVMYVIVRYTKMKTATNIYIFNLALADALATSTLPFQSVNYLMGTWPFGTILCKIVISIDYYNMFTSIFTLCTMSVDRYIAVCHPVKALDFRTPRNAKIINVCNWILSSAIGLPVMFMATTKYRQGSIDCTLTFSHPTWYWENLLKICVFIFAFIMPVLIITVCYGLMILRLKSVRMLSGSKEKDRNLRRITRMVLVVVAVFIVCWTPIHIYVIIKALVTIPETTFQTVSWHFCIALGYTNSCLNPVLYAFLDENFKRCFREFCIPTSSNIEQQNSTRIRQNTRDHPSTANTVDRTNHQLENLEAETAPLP

SERT, sequence (P31645 whole entry): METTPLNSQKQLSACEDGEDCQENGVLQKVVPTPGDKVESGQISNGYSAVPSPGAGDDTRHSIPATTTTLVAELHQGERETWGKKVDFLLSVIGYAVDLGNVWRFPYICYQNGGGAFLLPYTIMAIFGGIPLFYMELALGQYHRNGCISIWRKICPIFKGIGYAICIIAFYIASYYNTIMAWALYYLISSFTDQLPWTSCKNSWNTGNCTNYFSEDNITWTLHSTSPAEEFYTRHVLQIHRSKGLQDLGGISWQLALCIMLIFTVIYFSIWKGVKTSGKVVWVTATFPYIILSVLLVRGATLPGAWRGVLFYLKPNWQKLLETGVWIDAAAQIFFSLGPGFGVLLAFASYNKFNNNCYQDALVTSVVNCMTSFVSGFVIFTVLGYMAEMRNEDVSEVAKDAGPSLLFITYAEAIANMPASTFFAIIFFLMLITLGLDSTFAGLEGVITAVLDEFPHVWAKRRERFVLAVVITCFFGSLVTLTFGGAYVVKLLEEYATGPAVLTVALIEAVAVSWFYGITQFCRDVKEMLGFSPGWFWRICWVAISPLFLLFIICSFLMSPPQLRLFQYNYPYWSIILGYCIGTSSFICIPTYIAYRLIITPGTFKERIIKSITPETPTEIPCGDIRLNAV
D1, sequence (P21728 whole entry): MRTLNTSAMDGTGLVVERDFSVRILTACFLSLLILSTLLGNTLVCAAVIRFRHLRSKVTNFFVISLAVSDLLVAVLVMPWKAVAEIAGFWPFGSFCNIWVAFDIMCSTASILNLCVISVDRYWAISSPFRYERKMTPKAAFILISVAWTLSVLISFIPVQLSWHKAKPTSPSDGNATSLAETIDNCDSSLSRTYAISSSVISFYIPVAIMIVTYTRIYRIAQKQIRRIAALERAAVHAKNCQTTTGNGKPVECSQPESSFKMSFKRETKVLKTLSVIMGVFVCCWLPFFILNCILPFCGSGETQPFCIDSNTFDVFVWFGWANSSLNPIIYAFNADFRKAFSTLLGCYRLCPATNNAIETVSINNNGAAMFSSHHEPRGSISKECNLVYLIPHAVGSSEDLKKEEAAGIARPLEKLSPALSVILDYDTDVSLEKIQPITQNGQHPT
5-HT2A, sequence (P28223 whole entry): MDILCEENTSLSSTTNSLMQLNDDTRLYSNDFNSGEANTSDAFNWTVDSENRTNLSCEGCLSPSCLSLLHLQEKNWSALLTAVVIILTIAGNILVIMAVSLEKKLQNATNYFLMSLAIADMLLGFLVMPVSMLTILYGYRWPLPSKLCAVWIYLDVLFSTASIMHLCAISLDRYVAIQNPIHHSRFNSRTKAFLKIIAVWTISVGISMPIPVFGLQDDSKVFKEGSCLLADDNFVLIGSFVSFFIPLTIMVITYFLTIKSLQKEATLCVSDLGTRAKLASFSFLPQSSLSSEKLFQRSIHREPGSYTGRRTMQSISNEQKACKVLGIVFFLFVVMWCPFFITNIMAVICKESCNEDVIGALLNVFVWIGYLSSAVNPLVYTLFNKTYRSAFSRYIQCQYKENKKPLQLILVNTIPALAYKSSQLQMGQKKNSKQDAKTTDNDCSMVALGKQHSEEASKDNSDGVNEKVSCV

Consider `O=C1Nc2cccc3c2N([C@H]2CCN(CCCOc4ccc(F)cc4)C[C@@H]32)C1(F)F` [Ex. 13, (6bR,10aS)-1,1-difluoro-8-(3-(4-fluorophenoxy)propyl)-6b,7,8,9,10,10a-hexahydro-1H-pyrido[3′,4′:4,5]pyrrolo[1,2,3-de]quinoxalin-2(3H)-one], for which the inhibition at 0.2 µM in experiment [1] came to 6%. The inhibition at 0.1 µM was 21% in experiment [2], 7% in experiment [3], 24% in experiment [4] and under 0% in experiment [5].
